Data taken from patent publication US20150182597A1, “COMPOSITIONS COMPRISING HYALURONIC ACID AND DERMATAN SULPHATE FOR THE TREATMENT OF BEING OVERWEIGHT AND OBESITY” (BIOIBERICA, S.A., priority 2012, published 2015).

Assays:
resistin = test: Resistin gene expression in MEF-derived adipocytes; format: cell-based, mouse; settings: 8 days of MEF adipocyte differentiation in adipogenic medium; compositions at f.c. 20, 100, 200 μg/mL; HA 80, DS 20 μg/mL
Experimental: MEFs obtained from embryos of 13 days gestational age were cultured in monolayer in growth medium consisting of […] (Invitrogen, Carlsbad, Calif., USA) basal medium supplemented with […] supplement (7.5%), foetal bovine serum (7.5%) and antibiotics, in 12-well culture plates of 1 mL capacity/well, following a previously described protocol (J. B. Hansen et al., Proc. Natl. Acad. Sci. USA 101, 4112-4117 (2004)). […] The mRNA levels of the genes related to adipocyte differentiation PPARgamma, C/EBPalpha and fatty acid synthase (FAS) were determined by real-time PCR from the total RNA extracted from the cells with Trizol reagent and reverse-transcribed with reverse transcriptase, and using the mRNA of beta-actin as an internal control. […] The statistical significance of differences with respect to treatment with the carrier was analyzed by means of Student's t-test. […] The mRNA levels of selected genes were determined by real-time PCR, as described in Example 1. […] Expression levels of the resistin gene were determined by real-time PCR, as described in Example 1.

[1] = tested on: mouse embryonic fibroblasts (MEFs); test: Spontaneous adipogenesis of MEFs in growth medium: lipid accumulation under phase contrast microscopy; format: cell-based; settings: day 8 of culture in growth medium, HA 80 μg/mL, DS 20 μg/mL, HA8O+DS20 100 μg/mL
Experimental: MEFs obtained from embryos of 13 days gestational age were cultured in monolayer in growth medium consisting of […] (Invitrogen, Carlsbad, Calif., USA) basal medium supplemented with […] supplement (7.5%), foetal bovine serum (7.5%) and antibiotics, in 12-well culture plates of 1 mL capacity/well, following a previously described protocol (J. B. Hansen et al., Proc. Natl. Acad. Sci. USA 101, 4112-4117 (2004)). Two days after reaching confluence, which is considered day 0 of culture, the cells were exposed to: carrier (water); hyaluronic acid (HA) at a final concentration (f.c.) of 80 μg/mL; dermatan sulphate (DS) at an f.c. of 20 μg/mL; chondroitin sulphate (CS) at an f.c. of 20 μg/mL; or composition of the present invention HA8O+DS20 at an f.c. of 100 μg/mL, containing 80 μg of HA and 20 μg of DS per mL. […] The mRNA levels of the genes related to adipocyte differentiation PPARgamma, C/EBPalpha and fatty acid synthase (FAS) were determined by real-time PCR from the total RNA extracted from the cells with Trizol reagent and reverse-transcribed with reverse transcriptase, and using the mRNA of beta-actin as an internal control. […] The statistical significance of differences with respect to treatment with the carrier was analyzed by means of Student's t-test. […]

dermatan sulphate [DS20]
expression of resistin (resistin): not reproduced | clusters of cells spontaneously differentiated into adipocytes filled with fat droplets [1]: presence of a number of clusters of cells spontaneously differentiated into adipocytes filled with fat droplets

hyaluronic acid [HA80]
expression of resistin (resistin): not reproduced | clusters of cells spontaneously differentiated into adipocytes filled with fat droplets [1]: presence of a number of clusters of cells spontaneously differentiated into adipocytes filled with fat droplets
